# How the values were obtained:
# HepG2 = assay: cells; conditions: Homo sapiens, HepG2, 48 h
# Description: Cytotoxicity against human HepG2 cells after 48 hrs by MTT assay
# K562 = assay: cells; conditions: Homo sapiens, K562, 48 h
# Description: Cytotoxicity against human K562 cells after 48 hrs by MTT assay
# OVCAR-3 = assay: Cytotoxicity against human OVCAR-3 cells after 48 hrs by MTT assay; conditions: OVCAR-3, 48 h
# Bcl-2-like protein 1 [1] = biological target: T1, Bcl-2-like protein 1 (Homo sapiens, UniProt Q07817); assay: Inhibition of human Bcl-XL
# [2] = Cytotoxicity against human Bel7404 cells after 48 hrs by MTT assay; conditions: BEL-7404, 48 h
# A2780 = assay: cells; conditions: Homo sapiens, A2780, 48 h
# Description: Cytotoxicity against human A2780 cells after 48 hrs by MTT assay
# PC-3 = assay: Cytotoxicity against human PC3 cells after 48 hrs by MTT assay; format: functional, cell-based; conditions: for EC50: PC-3, 48 h
# Bcl-2-like protein 1 [3] = biological target: T1, Bcl-2-like protein 1; assay: Displacement of FITC-labeled BH3 peptide from human Bcl-XL after 1 hr by fluorescence polarization assay
# [4] = biological target: Induced myeloid leukemia cell differentiation protein Mcl-1 homolog (Mus musculus, UniProt P97287); assay: Displacement of FITC-labeled BH3 peptide from GST-tagged mouse Mcl1 after 1 hr by fluorescence polarization assay
# Sequence of Induced myeloid leukemia cell differentiation protein Mcl-1 homolog (P97287 whole entry): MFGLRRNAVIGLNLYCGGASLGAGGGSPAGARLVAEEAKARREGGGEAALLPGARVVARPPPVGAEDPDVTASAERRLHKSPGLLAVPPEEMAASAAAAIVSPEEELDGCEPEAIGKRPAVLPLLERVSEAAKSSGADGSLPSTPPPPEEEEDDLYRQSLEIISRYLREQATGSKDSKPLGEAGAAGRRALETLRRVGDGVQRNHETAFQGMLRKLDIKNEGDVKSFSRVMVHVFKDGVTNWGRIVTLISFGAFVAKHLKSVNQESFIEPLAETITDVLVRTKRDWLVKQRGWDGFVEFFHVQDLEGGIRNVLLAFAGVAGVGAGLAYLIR
# [5] = biological target: Apoptosis regulator Bcl-2 (Homo sapiens, UniProt P10415); assay: Displacement of FITC labeled BH3 peptide from His-tagged human BCL2 after 1 hr by fluorescence polarization assay
# Sequence of Apoptosis regulator Bcl-2 (P10415 whole entry): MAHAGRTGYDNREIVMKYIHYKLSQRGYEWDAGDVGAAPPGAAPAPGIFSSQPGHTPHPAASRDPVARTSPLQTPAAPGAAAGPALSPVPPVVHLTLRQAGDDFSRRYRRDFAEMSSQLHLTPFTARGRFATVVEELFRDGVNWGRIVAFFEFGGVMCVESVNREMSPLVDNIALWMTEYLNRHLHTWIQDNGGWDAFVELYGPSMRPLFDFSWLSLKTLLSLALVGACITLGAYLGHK
# Bcl-2-like protein 1 [6] = biological target: Bcl-2-like protein 1 (Homo sapiens, UniProt Q07817, Y101A); assay: Binding affinity to human Bcl-XL Y101A mutant by surface plasma resonance based biosensor system
# Sequence of Bcl-2-like protein 1 (Homo sapiens, UniProt Q07817, Y101A) (Q07817 whole entry Y101A): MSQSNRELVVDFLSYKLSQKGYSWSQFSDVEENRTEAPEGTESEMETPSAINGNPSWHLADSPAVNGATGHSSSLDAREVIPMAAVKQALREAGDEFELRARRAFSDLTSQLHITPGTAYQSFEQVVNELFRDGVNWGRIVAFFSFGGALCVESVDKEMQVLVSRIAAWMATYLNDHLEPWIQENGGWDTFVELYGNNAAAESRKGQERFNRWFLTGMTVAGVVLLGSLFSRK
# T1 sequence (Q07817 whole entry): as the sequence (Q07817 whole entry Y101A) above, with A101Y counted along it
EC50 (HepG2) [µM],EC50 (K562) [µM],IC50 (Bcl-2-like protein 1 [1]) [µM],EC50 (A2780) [µM],IC50 (Bcl-2-like protein 1 [3]) [µM],IC50 [4] [µM],IC50 [5] [µM],Kd (Bcl-2-like protein 1 [6]) [µM],Structure (SMILES),EC50 (OVCAR-3) [µM],EC50 [2] [µM],Activity (PC-3),EC50 (PC-3) [µM]
186,> 100,5.4,16.9,,,,,O=C(O)COc1cccc(/C=c2\sc3n(c2=O)C(c2cccc(F)c2)C2=C(N=3)c3ccccc3CC2)c1 (stereo not drawn),2.8,50.9,Dose-dependent effect,> 100
> 100,> 100,7.3,13.8,7.3,19.2,11.1,,COc1cccc(C2C3=C(N=c4s/c(=C\c5ccc(-c6cccc(C(=O)O)c6)o5)c(=O)n42)c2ccccc2CC3)c1 (stereo not drawn),7.91,> 100,Dose-dependent effect,29.5
41.9,7.99,12.1,7.81,,,,,COc1ccccc1C1C2=C(N=c3s/c(=C\c4ccccc4OCC(=O)O)c(=O)n31)c1ccccc1CC2 (stereo not drawn),4.44,9.5,Dose-dependent effect,
> 500,> 100,6.2,> 100,,,,,O=C(O)c1cccc(-c2ccc(/C=c3\sc4n(c3=O)C(c3ccccc3F)C3=C(N=4)c4ccccc4CC3)o2)c1 (stereo not drawn),76.6,> 500,,31.2
,,> 100,,,,,,COc1ccccc1C1C2=C(N=c3s/c(=C\c4cccc(OCC(=O)O)c4)c(=O)n31)c1cccc(OCc3ccccc3)c1CC2 (stereo not drawn),,,,> 100
,,6.2,,,,,,CC(C)C(C(=O)O)C1C(=O)/C(=C/c2ccc(Br)cc2)SC1=S (stereo not drawn),,,,
35.1,26.3,5.2,7.38,,,,,O=C(O)c1cccc(-c2ccc(/C=c3\sc4n(c3=O)C(c3ccc(F)cc3)C3=C(N=4)c4ccccc4CC3)o2)c1 (stereo not drawn),5.85,25.9,Dose-dependent effect,13.4
14.5,7.04,10.3,5.49,,,,,O=C(O)COc1cccc(/C=c2\sc3n(c2=O)C(c2ccccc2)C2=C(N=3)c3ccccc3CC2)c1 (stereo not drawn),2.73,7.8,,> 100
15.4,> 100,3,5.81,3,8.6,3.2,,O=C(O)c1cccc(-c2ccc(/C=c3\sc4n(c3=O)C(c3cccc(F)c3)C3=C(N=4)c4ccccc4CC3)o2)c1 (stereo not drawn),12,51.3,Dose-dependent effect,> 100
32.3,> 100,100,17.8,,,,,CCOC(=O)COc1cccc(/C=c2\sc3n(c2=O)C(c2ccccc2OC)C2=C(N=3)c3ccccc3CC2)c1 (stereo not drawn),47.5,92.3,,45
,,> 100,,,,,,COc1ccccc1C1C2=C(N=c3s/c(=C\c4cccc(OCC(=O)O)c4)c(=O)n31)c1cccc(OC(=O)c3ccccc3-c3ccccc3)c1CC2 (stereo not drawn),,,,16.6
175,> 100,72,9.98,,,,,COc1ccccc1C1C=C(c2ccccc2)N=c2s/c(=C\c3cccc(OCC(=O)O)c3)c(=O)n21 (stereo not drawn),22.2,> 500,,65.2
,,> 100,,,,,,COc1ccc2c(c1)CCC1=C2N=c2s/c(=C\c3ccc(-c4cccc(C(=O)O)c4)o3)c(=O)n2C1c1cccc(F)c1 (stereo not drawn),,,Dose-dependent effect,35.2
8,> 100,> 100,5.36,,,,,O=C(O)c1cccc(-c2ccc(/C=c3\sc4n(c3=O)C(c3cccc(F)c3)C3=C(N=4)/C(=C/c4cccc(F)c4)CCC3)o2)c1 (stereo not drawn),11.7,3.8,,51.4
35.6,20.8,5.3,4.94,,,,,COc1ccccc1C1C2=C(N=c3s/c(=C\c4ccc(-c5cccc(C(=O)O)c5)o4)c(=O)n31)c1ccccc1CC2 (stereo not drawn),9.06,140,,23.2
> 100,72.3,6.9,13.1,6.9,18.6,8,> 1000,COc1ccc(C2C3=C(N=c4s/c(=C\c5ccc(-c6cccc(C(=O)O)c6)o5)c(=O)n42)c2ccccc2CC3)cc1 (stereo not drawn),7.21,24.7,Dose-dependent effect,12
72.8,> 100,40.4,15.3,,,,,O=C(O)COc1cccc(/C=c2\sc3n(c2=O)C(c2ccco2)C2=C(N=3)c3ccccc3CC2)c1 (stereo not drawn),8.5,14,Dose-dependent effect,10.2
13.6,> 100,12.6,7.46,,,,,O=C(O)c1cccc(-c2ccc(/C=c3\sc4n(c3=O)C(c3ccccc3)C3=C(N=4)c4ccccc4CC3)o2)c1 (stereo not drawn),18.9,71.7,,> 100
,,> 100,,,,,,COc1ccc2c(c1)CCC1=C2N=c2s/c(=C\c3cccc(OCC(=O)O)c3)c(=O)n2C1c1ccccc1OC (stereo not drawn),,,,> 100
49.8,> 100,12.7,7.85,,,,,COc1ccccc1C1C2=C(N=c3sc(=Cc4ccc(C=CC(=O)O)cc4)c(=O)n31)c1ccccc1CC2 (stereo not drawn),3.29,11.2,Dose-dependent effect,17.3
15.3,5.62,36,6.13,,,,,COc1ccccc1C1C2=C(N=c3s/c(=C\c4ccc(OCC(=O)O)cc4)c(=O)n31)c1ccccc1CC2 (stereo not drawn),2.85,6.1,,11.1
15.9,> 100,> 100,6.8,,,,,O=C(O)COc1cccc(/C=c2\sc3n(c2=O)C(c2cccc(F)c2)C2=C(N=3)/C(=C/c3cccc(F)c3)CCC2)c1 (stereo not drawn),3.27,4.3,,12
> 500,> 100,35.9,15.8,,,,,O=C(O)c1cccc(-c2ccc(/C=c3\sc4n(c3=O)C(c3ccco3)C3=C(N=4)c4ccccc4CC3)o2)c1 (stereo not drawn),> 100,> 500,Dose-dependent effect,79.5
45,16.1,12.6,7.94,,,,,COc1ccccc1C1C2=C(N=c3s/c(=C\c4ccc(C(=O)O)cc4)c(=O)n31)c1ccccc1CC2 (stereo not drawn),3.35,9.7,,63.5
7.2,9.41,26.7,2.23,,,,,COc1ccccc1C1C2=C(N=c3s/c(=C\c4ccc(-c5cccc(C(=O)O)c5)cc4)c(=O)n31)c1ccccc1CC2 (stereo not drawn),7.17,4.5,,67.1
9.9,6.42,17.4,3.03,17.4,34.4,19.4,> 1000,COc1ccc(C2C3=C(N=c4s/c(=C\c5ccc(OCc6cccc(C(=O)O)c6)c(OC)c5)c(=O)n42)c2ccccc2CC3)cc1 (stereo not drawn),11.7,7.2,Dose-dependent effect,> 100
13.4,17.3,1.9,3.9,,,,,O=C(O)c1cccc(-c2ccc(/C=c3\sc4n(c3=O)C(c3cccc([N+](=O)[O-])c3)C3=C(N=4)c4ccccc4CC3)o2)c1 (stereo not drawn),26.9,65.1,Dose-dependent effect,44.9
> 500,22.9,13.4,6.34,,,,,O=C(O)c1cccc(-c2ccc(/C=c3\sc4n(c3=O)C(c3cccc5ccccc35)C3=C(N=4)c4ccccc4CC3)o2)c1 (stereo not drawn),18.7,204,Dose-dependent effect,24.2
19.9,6.33,19.7,7.52,,,,,O=C(O)COc1cccc(/C=c2\sc3n(c2=O)C(c2cccc4ccccc24)C2=C(N=3)c3ccccc3CC2)c1 (stereo not drawn),2.21,3.1,,68

# — ChEMBL document CHEMBL1157133, “Design, synthesis, and interaction study of quinazoline-2(1H)-thione derivatives as novel potential Bcl-xL inhibitors” (J Med Chem, 2010)
